The values below come from patent US20220096641A1, “PYRROLOBENZODIAZEPINE DIMER COMPOUND WITH IMPROVED SAFETY AND USE THEREOF” (priority 2019, published 2022).

Where two headings read alike, the source gives them in different places. Square brackets hold non-standard residues; d marks the D form. Peptide text beside a SMILES is read from it. * marks the point of attachment. Dolaproine = CO[C@@H]([C@@H]1CCCN1)[C@@H](C)C(=O)O; Dil = CC[C@H](C)[C@H](NC)[C@@H](CC(=O)O)OC; X1 = C[C@@H](N*)[C@@H](O)c1ccccc1; NMeV = CN[C@H](C(=O)O)C(C)C A value given as a limit tells only on which side of the number the result lay.

Broadly, the IC50 is the midpoint of a concentration-inhibition curve. The viability is a read-out of living cells in per cent, often relative to untreated cells.

The subject of data set [1] is Co-culture SK-BR3:MDA-MB-468 = 1:1. The conditions noted are these: free toxin control materials; cited from earlier work.
Data set [2] has as its system SK-BR3 human breast cancer cell line (HER2-positive). Nature of the data set: Bystander effect experiment, SK-BR3 alone. As to conditions: for Cell viability (%) SK-BR3: single concentration of 1 nM, 144 hours, SRB; for viability at 0.001 µM: Homo sapiens, SK-BR-3, 144 h, read-out: Cell viability (%) SK-BR3. The procedure:
(§1) The cell proliferation inhibitory activity of the drugs and ADC presented in Table 4 below on cancer cell lines was measured. The SK-BR3 human breast cancer cell line (procured from Korea Cell Line Bank (KCLB)) was used as a HER2-positive cell line, and the MDA-MB-468 human triple-negative breast cancer cell line (procured from ATCC) was used as a HER2-negative cell line. […] All ADCs used in the experiment were anti-HER2 ADCs. In a 96-well plate, 6,000 SK-BR3, 6,000 MDA-MB-468, or 3,000 SK-BR3 and 3,000 MDA-MB-468 per well were seeded together, cultured for 24 hours, and then treated with each drug and ADC at a single concentration of 1 nM. After 144 hours, the number of viable cells was quantified using SRB (Sulforhodamine B) dye.

Data set [3] concerns Co-culture SK-BR3:MDA-MB-468 = 1:1. Nature of the data set: Bystander effect experiment, co-culture. As to conditions: for Cell viability (%) Co-culture (SK-BR3:MDA-MB-468 = 1:1): single concentration of 1 nM, 144 hours, SRB; for viability at 0.001 µM: Homo sapiens, 144 h, read-out: Cell viability (%) Co-culture (SK-BR3:MDA-MB-468 = 1:1). The method, then: as §1
The subject of data set [4] is MDA-MB-468 human triple-negative breast cancer cell line (HER2-negative). Nature of the data set: Bystander effect experiment, MDA-MB-468 alone. The conditions noted are these: for Cell viability (%) MDA-MB-468: single concentration of 1 nM, 144 hours, SRB; for viability at 0.001 µM: Homo sapiens, MDA-MB-468, 144 h, read-out: Cell viability (%) MDA-MB-468. The procedure:
as §1

Data set [5] concerns MCF-7 (HER2 negative to normal). As to the kind of experiment: In vitro cytotoxicity (cell proliferation inhibition, SRB), MCF-7. The data set is classed as cell-based. The conditions noted are these: Homo sapiens. The method, then:
(§2) The cell proliferation inhibitory activity of the drugs and ADCs presented in Tables 2 and 3 below on cancer cell lines was measured. As the cancer cell lines, commercially available human breast cancer cell lines MCF-7 (HER2 negative to normal), SK-BR3 (HER2 positive), and JIMT-1 (HER2 positive) were used. […] In a 96-well plate, 5,000 SK-BR3, 5,000 MCF-7, and 2,500 JIMT-1 per well were seeded, cultured for 24 hours, and then treated with ADCs at a concentration of 25 fM to 10 nM (5-fold serial dilutions) and drugs at a concentration of 25 fM to 10 nM (5-fold serial dilutions) or 1 fM to 100 nM (10-fold serial dilutions).

Data set [6] relates to SK-BR3 (HER2 positive). As to the kind of experiment: In vitro cytotoxicity (cell proliferation inhibition, SRB), SK-BR3. The class given is cell-based. As to conditions: Homo sapiens. The method, then: as §2
In data set [7] the test system is JIMT-1 (HER2 positive). As to the kind of experiment: In vitro cytotoxicity (cell proliferation inhibition, SRB), JIMT-1. The data set is classed as cell-based. As to conditions: Homo sapiens. The procedure:
as §2

Data set [8] is described as follows: Rat pre-tox experiment (single dose toxicity). The class given is in vivo, SD rats. The conditions noted are these: single tail vein dose; for inhibition of weight gain: SG2057 statement for 0.02 mg/kg and 0.04 mg/kg groups. The procedure:
Twenty one 8-week-old male SD rats were divided into 7 groups of 3 rats each, the test material was administered thereto through the tail vein at 2 mL/kg one time, and the weight/death/clinical symptoms and the like thereof were observed. The body weight was measured two times a week, and death and clinical symptoms were observed daily. Four weeks after administration, planned slaughter was performed to examine the gross findings of organs. The results are as illustrated in FIG. 3.

Where [9] appears, read: first of three dose groups (dose not given).
The mark [10] stands for this setting: second of three dose groups (apparently 0.02 mg/kg).
Setting [11] is: third of three dose groups (apparently 0.04 mg/kg).
[12] abbreviates: MCF7, 144 h, read-out: IC50 (nM) MCF7, pyrrolobenzodiazepine derivatives (free drugs), 144 hours, SRB.
[13] abbreviates: SK-BR-3, 144 h, read-out: IC50 (nM) SK-BR3, pyrrolobenzodiazepine derivatives (free drugs), 144 hours, SRB.
[14] abbreviates: JIMT-1, 144 h, read-out: IC50 (nM) JIMT-1, pyrrolobenzodiazepine derivatives (free drugs), 144 hours, SRB.

On to `CC[C@H](C)[C@@H]([C@@H](CC(=O)N1CCC[C@H]1[C@H](OC)[C@@H](C)C(=O)N[C@@H](Cc1ccccc1)C(=O)O)OC)N(C)C(=O)[C@@H](NC(=O)[C@@H](NC)C(C)C)C(C)C` [MMAF] (H-[NMeV]V[Dil][Dolaproine]F-OH), for which the “bystander effect (already known)” value in data set [1] is reported as “known to exhibit no bystander effect”. Further, the “Cell viability (%) SK-BR3” value in data set [2] was 101%. In addition, the “Cell viability (%) Co-culture (SK-BR3:MDA-MB-468 = 1:1)” value in data set [3] is given as 99%. Besides, the “Cell viability (%) MDA-MB-468” value in data set [4] is listed as 105%.
With `CC[C@H](C)[C@@H]([C@@H](CC(=O)N1CCC[C@H]1[C@H](OC)[C@@H](C)C(=O)N[C@H](C)[C@@H](O)c1ccccc1)OC)N(C)C(=O)[C@@H](NC(=O)[C@@H](NC)C(C)C)C(C)C` [MMAE] (H-[NMeV]V[Dil][Dolaproine]-X1), the “bystander effect (already known)” value in data set [1] was “known to exhibit a bystander effect”. Besides, the “Cell viability (%) SK-BR3” value in data set [2] amounted to 12%. The “Cell viability (%) Co-culture (SK-BR3:MDA-MB-468 = 1:1)” value in data set [3] amounted to 12%. Besides, in data set [4], the “Cell viability (%) MDA-MB-468” value is listed as 14%.
Turning to `C=C1CC2CNc3cc(OCc4cc(COc5cc6c(cc5OC)C(=O)N5CC(=C)C[C@H]5CN6)cc(OCCOCCOCCOCC(=O)O)c4)c(OC)cc3C(=O)N2C1` (some centres unmarked) [Compound 32], the IC50 was more than 100 nM in data set [5] (MCF7, pyrrolobenzodiazepine derivatives (free drugs), 144 hours, SRB, read-out: IC50 (nM) MCF7); 18.2 nM in data set [6] (SK-BR-3, pyrrolobenzodiazepine derivatives (free drugs), 144 hours, SRB, read-out: IC50 (nM) SK-BR3); more than 100 nM in data set [7] (JIMT-1, pyrrolobenzodiazepine derivatives (free drugs), 144 hours, SRB, read-out: IC50 (nM) JIMT-1). Besides, the viability at 0.001 µM was found to be 98% in data set [2], 98% in data set [3] and 101% in data set [4]. In addition, the bystander effect entry in data set [3] (conclusion from mono- and co-culture viability at 1 nM) is “do not exhibit a bystander effect”. Besides, the “body weight at end of 4th week as compared to body weight at time of administration” value in data set [8] (setting [9]) was 171%; in data set [8] (setting [10]), 164%; in data set [8] (setting [11]), 161%. For the same molecule, the “inhibition of weight gain” value in data set [8] is listed as “very insignificant”.
On to `C=C1C[C@H]2C=Nc3cc(OCc4cc(COc5cc6c(cc5OC)C(=O)N5CC(=C)C[C@H]5C=N6)cc(OCCOCCOCCOCC(=O)OC)c4)c(OC)cc3C(=O)N2C1` [Compound 33], for which the IC50 in data set [5] (setting [12]), in data set [6] (setting [13]) and in data set [7] (setting [14]) was more than 100 nM in each case.
On to `C=C1C[C@H]2C=Nc3cc(OCc4cc(COc5cc6c(cc5OC)C(=O)N5CC(=C)C[C@H]5C=N6)cc(OCCOCCOCCOCC(=O)NC(CC(=O)O)CC(=O)O)c4)c(OC)cc3C(=O)N2C1` [Compound 52], for which the IC50 in data set [5] (setting [12]), in data set [6] (setting [13]) and in data set [7] (setting [14]) was more than 100 nM in each case.
With `C=C1C[C@H]2C=Nc3cc(OCc4cc(COc5cc6c(cc5OC)C(=O)N5CC(=C)C[C@H]5C=N6)cc(OCCOCCOCCOCC(=O)NC(CC(=O)OC)CC(=O)OC)c4)c(OC)cc3C(=O)N2C1` [Compound 53], the IC50 came out at 11.8 nM in data set [5] (setting [12]), 2.52 nM in data set [6] (setting [13]) and 8.93 nM in data set [7] (setting [14]).
For `C=C1C[C@H]2C=Nc3cc(OCCCCCOc4cc5c(cc4OC)C(=O)N4CC(=C)C[C@H]4C=N5)c(OC)cc3C(=O)N2C1` [SG2057], the IC50 in data set [5] (MCF7, 144 h, read-out: IC50 (nM) MCF7, comparison of anti-HER2 ADCs, 144 hours, SRB) came to 0.06 nM; in data set [5] (setting [12]), 0.05 nM; in data set [6] (SK-BR-3, 144 h, read-out: IC50 (nM) SK-BR3, comparison of anti-HER2 ADCs, 144 hours, SRB) it was 0.02 nM; in data set [6] (setting [13]), 0.01 nM; in data set [7] (JIMT-1, 144 h, read-out: IC50 (nM) JIMT-1, comparison of anti-HER2 ADCs, 144 hours, SRB) it was 0.05 nM; in data set [7] (setting [14]) it was 0.04 nM. Besides, the viability at 0.001 µM is 7% in data set [2], 6% in data set [3] and 4% in data set [4]. Besides, the “body weight at end of 4th week as compared to body weight at time of administration” value in data set [8] (setting [9]) stood at 167%; in data set [8] (setting [10]), 148%; in data set [8] (setting [11]), 115%. The “inhibition of weight gain” value in data set [8] is “significantly inhibited weight gain”.
